Results from paper PMC9969401, “Discovery of 2-(3-Benzamidopropanamido)thiazole-5-carboxylate Inhibitors of the Kinesin HSET (KIFC1) and the Development of Cellular Target Engagement Probes” (Journal of Medicinal Chemistry, 2023).

What was measured:
[1] = target: T1, GST-tagged Eg5 motor domain (Homo sapiens, UniProt P52732); experiment: ADP-Glo Eg5 assay (4.8 μM ATP); format: biochemical; details: preformed microtubules, 4.8 μM ATP (Table 4)
T1 construct: 4 nM GST-tagged Eg5 motor domain protein (Cytoskeleton, EG01); purchased Cytoskeleton EG01
T1 sequence (P52732 18-359 limits assumed): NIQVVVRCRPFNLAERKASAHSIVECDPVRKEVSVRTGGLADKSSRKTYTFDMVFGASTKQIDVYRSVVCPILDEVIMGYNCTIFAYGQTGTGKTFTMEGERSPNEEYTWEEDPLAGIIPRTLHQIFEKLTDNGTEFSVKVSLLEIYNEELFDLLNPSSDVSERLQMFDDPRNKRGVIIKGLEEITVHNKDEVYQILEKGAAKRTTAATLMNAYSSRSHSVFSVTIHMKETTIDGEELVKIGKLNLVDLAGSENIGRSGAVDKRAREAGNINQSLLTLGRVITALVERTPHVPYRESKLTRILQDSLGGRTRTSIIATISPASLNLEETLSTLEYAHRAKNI
Experimental: The HSET or Eg5 ATPase activity was measured using the ADP-Glo Kinase Assay kit (Promega, V9102). The assays were run using final concentrations of 5 nM full-length human N-terminal His-tag HSET or 4 nM GST-tagged Eg5 motor domain protein (Cytoskeleton, EG01) and an assay buffer containing 20 mM HEPES pH 6.8, 10 mM MgCl2, 0.25 mM EGTA, 0.4 mM Triton X-100, and 1 mM DTT. Preformed microtubules (Universal Biologicals Cambridge, bovine MT001-XL, or porcine MT002-XL), which were reconstituted in 15 mM PIPES pH 7, 1 mM MgCl2, and 20 μM paclitaxel, were present at a final assay concentration of 70 μg/mL. A reaction volume of 5 μL was used in Proxiplate 384 plus white assay plates (PerkinElmer, 6008280). To measure compound inhibition, 100 nL of compound dissolved in DMSO or DMSO alone was preincubated with the HSET and microtubules for 10 min before 3 μM Ultra-Pure ATP was added to start the ATPase reaction for the 3 μM ATP HSET assay. For the 500 μM ATP HSET assay, the addition of 500 μM Ultra-Pure ATP was used. For the Eg5 ATPase assay, 4.8 μM Ultra-Pure ATP was used. All reactions were incubated at 25 °C for 80 min and then stopped by the addition of 5 μL of the ADP-Glo reagent. 10 μL of Kinase Detection Reagent was then added after a further 45 min of incubation. The luminescence was read after 45 min on a PheraStar FSX plate reader (BMG Labtech). The data processing was performed using Dotmatics Studies software package. Percentage inhibition was determined based on normalization to high controls (0% inhibition, all reagents with 100 nL of DMSO alone) and low controls (100% inhibition […], without HSET). The IC50 values for each compound were determined using a four-parameter logistic curve fit of % inhibition versus concentration.

[2] = tested on: non-centrosome amplified DLD1 (4N) cells; experiment: Multipolar spindle assay (4N cell line); format: cell-based, human; details: for % Multipolarity above baseline @ 15 mM (4N cells): supplementary CSV; for % multipolarity above baseline @ 15 μM (4N cells): 4N DLD1 cells (Table 4)
Description: The cellular models consisted of chromosomally stable human colon cancer DLD1 diploid (2N) and tetraploid (4N) cells, along with tetraploid centrosome -amplified (4NCA) DLD1 cells and DLD1 HSET knockout (KO) cells. DLD1 2N and 4N cells were generated and characterized as previously described.[27],[41],[42] In order to generate 4NCA cells, we used dihydro-cytochalasin B (DCB) to transiently block cytokinesis and induce tetraploidisation and centrosome amplification in DLD1 cells. Centrosome amplification in 4NCA cells is transient and therefore they were generated from 2N cells for each run of the assay.[27] The DLD1 HSET KO cells were knockout clones generated by CRISPR and validated by sequencing to have a homozygous deletion in the KIFC1 gene.
Inhibition of HSET-mediated clustering was measured using a phenotypic assay measuring the formation of multipolar metaphase spindles in DLD1 cells with (4NCA) or without (4N) centrosome amplification. 4NCA cells were generated by treating 2N DLD1 cells with 2 μΜ DCB for 24 h, washed, and released in growth media for 24 h. 4N and 4NCA DLD1 cells were plated in 96-well ibidi μ-Clear plates (IB-89626, ibidi) with a no. 1.5 polymer coverslip bottom with optimal imaging properties. To enrich the mitotic population, cells were first treated for 3.5 h with 8 μM pro-TAME (I-440-01M, R&D system), an inhibitor of APC/C that transiently arrests cells in metaphase without affecting the structure of the spindle. Following the initial arrest, cells were treated with HSET compounds in the presence of 8 μM MG-132 (S2619, SelleckChem), a proteasome inhibitor that helps to maintain the metaphase arrest, where the number of spindle poles/cell can be optimally quantified by an automated segmentation analysis.
Cells were then fixed in methanol and stained for 3 h for mitotic pole marker aurora A (1:1000 610939 mouse anti-IAK1, BD Biosciences) and phosphorylated histone H3 (1:1500 ab47297 anti-histone H3 pS10, Abcam) as a marker of mitotic cells in 1.5% FBS in PBS. Following primary antibody treatment, cells were incubated with secondary antibodies Alexa Fluor 488 goat antimouse and Alexa Fluor 555 goat antirabbit (1:1500, A11029 and A21429, respectively, Life Technologies) together with 1 μg/mL DAPI (D9542, Sigma) in 1.5% FBS in PBS. Image acquisition was performed at 10× using the GE INCELL 2200 High Content Imaging System (Cytiva) and analyzed using the InCell Investigator software. Mitotic cells were identified by high pHH3 staining and were scored as multipolar if they had more than two mitotic spindle poles. The percentage of multipolar mitoses was calculated by dividing the number of multipolar mitoses by the total of all visible mitoses in one well of a 96-well plate (n > 100 for each replicate, two replicates per concentration point).

SMILES | IC50 [1] | % Multipolarity above baseline @ 15 mM (4N cells) ([2]; 15 μM) | % multipolarity above baseline @ 15 μM (4N cells) [2] | effect on multipolar mitoses (4N), in words ([2]; 15 μM, non-centrosome amplified DLD1 (4N) cell line)
CCCOC(=O)c1sc(NC(=O)C[C@H](CCCNC)NC(=O)c2cccc(-c3noc(C)n3)c2)nc1C [Compound 35, Propyl (S)-4-Methyl-2-(3-(3-(5-methyl-1,2,4-oxadiazol-3-yl)benzamido)-6-(methylamino)hexanamido)thiazole-5-carboxylate] | > 200 µM | 1% | 1% | 
CCCOC(=O)c1sc(NC(=O)CCNC(=O)c2cccc(-c3noc(C)n3)c2)nc1C [Compound 32, Propyl 4-Methyl-2-(3-(3-(5-methyl-1,2,4-oxadiazol-3-yl)benzamido)propanamido)thiazole-5-carboxylate] | > 200 µM | 2% | 2% | minimal effect
CCCOC(=O)c1sc(NC(=O)C[C@H](CCCN(C)C)NC(=O)c2cccc(-c3noc(C)n3)c2)nc1C [Compound 36, Propyl (S)-2-(6-(Dimethylamino)-3-(3-(5-methyl-1,2,4-oxadiazol-3-yl)benzamido)hexanamido)-4-methylthiazole-5-carboxylate] | > 200 µM | 1% | 1% | 
